{"source": "patent US10456407B2", "about": "“Combination therapy for treating cancer” (Epizyme, Inc., priority 2015, dated 2019)", "test_system": "DOHH2 cells", "assay": "RT2 Glucocorticoid signaling PCR array, DOHH2 cell line (Table 4b)", "type": "cell-based", "conditions": "DOHH2, 4 days", "note": "Where “and” joins values, the source holds several entries; their conditions need not be identical. Equal values may be shown once.", "data": [{"smiles": "C[C@]12C=CC(=O)C=C1CC[C@@H]1[C@@H]2[C@@H](O)C[C@@]2(C)[C@H]1CC[C@]2(O)C(=O)CO", "note": "[Prednisolone, prednisolone]", "values": [{"measurement": "ACTB Ct Values", "result": 14.721}, {"measurement": "ADARB1 Ct Values", "result": 33.560}, {"measurement": "AFF1 Ct Values", "result": 23.992}, {"measurement": "AK2 Ct Values", "result": 20.262}, {"measurement": "AMPD3 Ct Values", "result": 27.535}, {"measurement": "ANGPTL4 Ct Values", "result": 31.538}, {"measurement": "ANXA4 Ct Values", "result": 24.997}, {"measurement": "ARID68 Ct Values", "result": 23.885}, {"measurement": "ASPH Ct Values", "result": 23.369}, {"measurement": "ATF4 Ct Values", "result": 19.313}, {"measurement": "B2M Ct Values", "result": 18.884}, {"measurement": "BCL6 Ct Values", "result": 21.801}, {"measurement": "BMPER Ct Values", "result": 39.378}, {"measurement": "CEBPA Ct Values", "result": 32.188}, {"measurement": "CEBPB Ct Values", "result": 24.317}, {"measurement": "COL4A2 Ct Values", "result": 38.993}, {"measurement": "CREB1 Ct Values", "result": 22.890}, {"measurement": "CREB3 Ct Values", "result": 24.865}, {"measurement": "CREB3L4 Ct Values", "result": 24.616}, {"measurement": "CTGF Ct Values", "result": 33.728}, {"measurement": "CYB561 Ct Values", "result": 39.582}, {"measurement": "DDIT4 Ct Values", "result": 24.105}, {"measurement": "DUSP1 Ct Values", "result": 27.866}, {"measurement": "EDN1 Ct Values", "result": 32.263}, {"measurement": "EHD3 Ct Values", "result": 31.098}, {"measurement": "ERRFI1 Ct Values", "result": 32.635}, {"measurement": "FK8PS Ct Values", "result": 20.912}, {"measurement": "FOSL2 Ct Values", "result": 31.543}, {"measurement": "GAPDH Ct Values", "result": 16.551}, {"measurement": "GDPD1 Ct Values", "result": 27.884}, {"measurement": "GHRHR Ct Values", "result": 36.095}, {"measurement": "GLUL Ct Values", "result": 34.574}, {"measurement": "GOT1 Ct Values", "result": 23.532}, {"measurement": "H6PD Ct Values", "result": 24.696}, {"measurement": "HNRPLL Ct Values", "result": 33.284}, {"measurement": "HPRT1 Ct Values", "result": 21.777}, {"measurement": "IL1RN Ct Values", "result": 33.560}, {"measurement": "IL6 Ct Values", "result": 34.758}, {"measurement": "KLF9 Ct Values", "result": 28.547}, {"measurement": "KLF13 Ct Values", "result": 22.546}, {"measurement": "LOX Ct Values", "result": 34.158}, {"measurement": "MERTK Ct Values", "result": 32.892}, {"measurement": "NFKBIA Ct Values", "result": 22.830}, {"measurement": "NR3C1 Ct Values", "result": 22.794}, {"measurement": "PDCD7 Ct Values", "result": 23.552}, {"measurement": "PDGFRB Ct Values", "result": 34.934}, {"measurement": "PDP1 Ct Values", "result": 25.682}, {"measurement": "PER1 Ct Values", "result": 25.142}, {"measurement": "PER2 Ct Values", "result": 24.159}, {"measurement": "PIK3R1 Ct Values", "result": 23.850}, {"measurement": "PLD1 Ct Values", "result": 37.120}, {"measurement": "PLEKHF1 Ct Values", "result": 29.414}, {"measurement": "POU2F1 Ct Values", "result": 24.648}, {"measurement": "POU2F2 Ct Values", "result": 22.489}, {"measurement": "RASA3 Ct Values", "result": 27.803}, {"measurement": "RGS2 Ct Values", "result": 25.514}, {"measurement": "RHOB Ct Values", "result": 33.162}, {"measurement": "RPLP0 Ct Values", "result": 15.128}, {"measurement": "SESN1 Ct Values", "result": 22.839}, {"measurement": "SGK1 Ct Values", "result": 29.628}, {"measurement": "SLC10A6 Ct Values", "result": 36.176}, {"measurement": "SLC19A2 Ct Values", "result": 25.455}, {"measurement": "SLC22A5 Ct Values", "result": 28.915}, {"measurement": "SNTA1 Ct Values", "result": 25.124}, {"measurement": "SPHK1 Ct Values", "result": 29.971}, {"measurement": "SPSB1 Ct Values", "result": 26.911}, {"measurement": "STAT5A Ct Values", "result": 23.565}, {"measurement": "STAT5B Ct Values", "result": 22.632}, {"measurement": "TBL1XR1 Ct Values", "result": 21.304}, {"measurement": "TNF Ct Values", "result": 31.956}, {"measurement": "TSC22D3 Ct Values", "result": 23.310}, {"measurement": "USP2 Ct Values", "result": 23.501}, {"measurement": "USPS4 Ct Values", "result": 26.683}, {"measurement": "VDR Ct Values", "result": 26.847}, {"measurement": "VLDLR Ct Values", "result": 28.584}, {"measurement": "ZFP36 Ct Values", "result": 24.270}, {"measurement": "ZHX3 Ct Values", "result": 24.418}, {"measurement": "ZNF281 Ct Values", "result": 23.828}, {"measurement": "PPC Ct Values", "setting": "array control, three lines", "result": "18.684 and 18.699 and 19.076"}, {"measurement": "RTC Ct Values", "setting": "array control, three lines", "result": "21.449 and 21.464 and 21.483"}, {"measurement": "ADARB1 ΔCT (B2M)", "setting": "normalized to B2M", "result": 14.676}, {"measurement": "AFF1 ΔCT (B2M)", "setting": "normalized to B2M", "result": 5.108}, {"measurement": "AK2 ΔCT (B2M)", "setting": "normalized to B2M", "result": 1.378}, {"measurement": "AMPD3 ΔCT (B2M)", "setting": "normalized to B2M", "result": 8.651}, {"measurement": "ANGPTL4 ΔCT (B2M)", "setting": "normalized to B2M", "result": 12.654}, {"measurement": "ANXA4 ΔCT (B2M)", "setting": "normalized to B2M", "result": 6.113}, {"measurement": "ARID68 ΔCT (B2M)", "setting": "normalized to B2M", "result": 5.001}, {"measurement": "ASPH ΔCT (B2M)", "setting": "normalized to B2M", "result": 4.485}, {"measurement": "ATF4 ΔCT (B2M)", "setting": "normalized to B2M", "result": 0.429}, {"measurement": "B2M ΔCT (B2M)", "setting": "normalized to B2M", "result": 0.000}, {"measurement": "BCL6 ΔCT (B2M)", "setting": "normalized to B2M", "result": 2.917}, {"measurement": "BMPER ΔCT (B2M)", "setting": "normalized to B2M", "result": 20.494}, {"measurement": "CEBPA ΔCT (B2M)", "setting": "normalized to B2M", "result": 13.304}, {"measurement": "CEBPB ΔCT (B2M)", "setting": "normalized to B2M", "result": 5.433}, {"measurement": "COL4A2 ΔCT (B2M)", "setting": "normalized to B2M", "result": 20.109}, {"measurement": "CREB1 ΔCT (B2M)", "setting": "normalized to B2M", "result": 4.006}, {"measurement": "CREB3L4 ΔCT (B2M)", "setting": "normalized to B2M", "result": 5.732}, {"measurement": "CREB3 ΔCT (B2M)", "setting": "normalized to B2M", "result": 5.981}, {"measurement": "CTGF ΔCT (B2M)", "setting": "normalized to B2M", "result": 14.844}, {"measurement": "CYB561 ΔCT (B2M)", "setting": "normalized to B2M", "result": 20.698}, {"measurement": "DDIT4 ΔCT (B2M)", "setting": "normalized to B2M", "result": 5.221}, {"measurement": "DUSP1 ΔCT (B2M)", "setting": "normalized to B2M", "result": 8.982}, {"measurement": "EDN1 ΔCT (B2M)", "setting": "normalized to B2M", "result": 13.379}, {"measurement": "EHD3 ΔCT (B2M)", "setting": "normalized to B2M", "result": 12.214}, {"measurement": "ERRFI1 ΔCT (B2M)", "setting": "normalized to B2M", "result": 13.751}, {"measurement": "FK8PS ΔCT (B2M)", "setting": "normalized to B2M", "result": 2.028}, {"measurement": "FOSL2 ΔCT (B2M)", "setting": "normalized to B2M", "result": 12.659}, {"measurement": "GAPDH ΔCT (B2M)", "setting": "normalized to B2M", "result": "−2.333"}, {"measurement": "GDPD1 ΔCT (B2M)", "setting": "normalized to B2M", "result": 9.000}, {"measurement": "GHRHR ΔCT (B2M)", "setting": "normalized to B2M", "result": 17.211}, {"measurement": "GLUL ΔCT (B2M)", "setting": "normalized to B2M", "result": 15.690}, {"measurement": "GOT1 ΔCT (B2M)", "setting": "normalized to B2M", "result": 4.648}, {"measurement": "H6PD ΔCT (B2M)", "setting": "normalized to B2M", "result": 6.085}, {"measurement": "HNRPLL ΔCT (B2M)", "setting": "normalized to B2M", "result": 14.400}]}]}
